According to patent US20090105349A1, “ANDROGEN MODULATORS” (WARNER-LAMBERT COMPANY LLC, priority 2004, published 2009):
Like-named read-outs stand apart in the source and are kept apart here.

Legend:
[1] = test system: male C3H/HeN mice (telogen to anagen conversion); assay type: in vivo
Source text: While this model is a significant improvement over the telogen conversion assay as a model for human baldness, it suffers from a number of practical disadvantages. The macaques are expensive, relatively rare, labor intensive to maintain, and require long wash out periods between testing. […] Thus, the model relates to a modification of the existing telogen conversion assay. Male C3H/HeN mice approximately 7 weeks old are utilized. These animals are also uniformly in telogen, like their female counterparts. However, once shaven, the androgens inherently present in these male mice inhibit the conversion of the hair follicles to the anagen phase. An anti-androgen will block this androgenic effect and the follicles will convert to anagen, like their female counterparts.
The compounds shown below in Table IV were submitted for further testing utilizing the modified telogen conversion assay, described above. The testing was carried out in the following manner.
Male C3H/HeN mice, 6 to 7 weeks old (Charles River Laboratories, Raleigh, N.C.) were used for the study. Fur was clipped from the dorsal region of the mice prior to initiation of the study. Only mice with pink skin, a visual indication of the telogen phase, were selected for inclusion in the study.
A second group of animals received only the vehicle to serve as a control. Treatments were applied twice daily for 4 weeks.
The hair growth response was quantified by recording, for each animal, the day on which signs of hair growth first appeared over the treated area. The first sign of anagen was the darkening of skin color as melanocytes in the follicles started to synthesize melanin in preparation for the production of pigmented hairs. […] The day on which anagen was initiated in 50% of the test animals for both the treatment group and the vehicle group is reported below in Table IV.

[2] = test system: male Syrian hamsters (ear sebaceous glands, sebum); assay: Animal model for inhibition of sebum production (hamster ear); assay type: in vivo, Syrian hamster; settings: 3 % w/v, 4 weeks; for % CE Reduction / % WE Reduction: Vehicle #1 (polyethylene glycol/transcutol/ethanol 20/20/60), topical twice daily, vs vehicle control; for % WE & CE Reduction: Vehicle #1, topical twice daily, sum of WE and CE
Procedure: Arch. Derm. […] This model uses male Syrian hamsters, whose ears contain sebaceous glands.
Testing for sebum inhibition was carried out in the following manner. Male Syrian hamsters aged 9 to 10 weeks were introduced into the laboratory environment and acclimated for 2 weeks prior to use in the study. Each group consisted of 5 animals and run in parallel with vehicle and positive controls. Prior to administration, a sufficient quantity each compound was dissolved in 1 mL of the vehicle identified in Table III to achieve the final concentration reported in Table Ill.
Animals were dosed topically twice daily, five days a week, for 4 weeks. Each dose consisted of 25 micro liters of vehicle control or drug. The dose was applied to the ventral surfaces of both the right and left ears. All animals were sacrificed approximately 18-24 hours after the final dose. The right ears were collected from each animal and used for sebum analysis.
The ears were prepped for HPLC analysis in the following manner. One 8 mm distal biopsy punch was taken, just above the anatomical “V” mark in the ear to normalize the sample area. The punch was pulled apart. The ventral biopsy surface (the area where the topical dose was directly applied to the sebaceous glands) was retained for testing and the dorsal surface of the biopsy punch was discarded.
Tissue samples were blown with N2 gas and stored at −80° C. under nitrogen until HPLC analysis. In addition to ear samples, an aliquot of each drug and vehicle (at least 250 ul) was also stored at −80° C. for inclusion in the HPLC analysis.
HPLC analysis was carried out on an extract of the tissue sample. Tissue samples were contacted with 3 ml of solvent (a 4:1 admixture of 2,2,4-trimethylpentane and isopropyl alcohol). The mixture was shaken for 15 minutes and stored overnight at room temperature, protected from light. The next morning 1 milliliter of water was added to the sample and shaken for 15 minutes. The sample was then centrifuged at approximately 1500 rpm for 15 minutes. Two ml of the organic phase (top layer) was transferred to a glass vial, dried at 37° C., under nitrogen, for approximately 1 hour, and then lyophilized for approximately 48 hours. The samples were then removed from the lyophilizer and each vial was reconstituted with 600 μl of solvent A (trimethylpentane/tetrahydrofuran (99:1). The samples were then recapped and vortexed for 5 minutes.
200 μl of each sample was then transferred to a pre-labeled 200 μl HPLC vial with 200 μL glass inserts. The HPLC vials were placed in the autosampler tray for the Agilent 1100 series HPLC unit. The Agilent 1100 HPLC system consisted of a thermostated autosampler, a quarternary pump, a column heater, and an A/D interface module. All components were controlled by Agilent ChemStation software. A Waters Spherisorb S3W 4.6×100 mm analytical column was maintained at 30° C. by the Agilent column heater unit. The HPLC autosampler was programmed to maintain the sample temperature at 20 C throughout the run.
10 uL of each sample was injected in triplicate into the column. Two solvents were used for the solvent gradient. Solvent A was an admixture of trimethylpentane and tetrahydrofuran (99:1). Solvent B was ethylacetate. The gradient utilized is described in the table below: […]
The Sedex 75 Evaporative Light Scattering Detector (ELSD) was operated at 45° C. with a gain of 5, and N2 pressure maintained at 3.1 bar. Analog signal obtained by the instrument was sent to the Agilent A/D interface module where it was converted to a digital output. The conversion was based on a 10000 mAU/volt set point and the data rate was set at 10 Hz (0.03 min). The resulting digital output was then feed into the Agilent ChemStation software for integration of the peak area.

spinal BMD = settings: after 7 years of treatment; cited from earlier work

Row | Structure (SMILES) | Anagen-Trx (day on which anagen was initiated in 50% of the test animals) ([1]; 3 % w/v, Vehicle #2 (polyethylene glycol/ethanol 30/70), topical twice daily for 4 weeks) [days] | % CE Reduction [2] [%] | % WE Reduction [2] [%] | % WE & CE Reduction [2] [%] | Anagen-Trx (day on which anagen was initiated in 50% of the test animals) ([1]; 1 % w/v, Vehicle #2, topical twice daily for 4 weeks) [days] | Anagen-Trx (day on which anagen was initiated in 50% of the test animals) ([1]; 5 % w/v, Vehicle #2, topical twice daily for 4 weeks) [days] | increase in spinal BMD (spinal BMD) [%]
1 | Cc1ccccc1Oc1ccc(C#N)cc1Cl [Example 4, 3-Chloro-4-o-tolyloxy-benzonitrile] | >35 | 76 | 90 | 166 |  |  | 
2 | Cc1ccccc1Oc1ccc(C#N)c(Cl)c1 [Example 7, 2-Chloro-4-o-tolyloxy-benzonitrile] |  | 71 | 87 | 158 | >60 | 35 | 
3 | NCCCC(O)(P(=O)(O)O)P(=O)(O)O [alendronate] |  |  |  |  |  |  | ≤ 11
